Assay results as given in the NIST ThermoML archive (doi:10.1016/j.jct.2013.09.030).
± gives the expanded uncertainty stated by the source.

Assay: cn = amount concentration of the nth substance listed, in mol/dm3
Conditions: 303.15 K; 101 kPa; Liquid; 4510 conductivity meter (Jenway, UK); c1 = 0.0005258

- electrical conductivity: 0.000611 ± 0.0002 S/m
Compound: CC1=C(C(=O)O)N2C(=O)[C@@H](NC(=O)[C@H](N)C3=CCC=CC3)[C@H]2SC1 [Cefradin] + O
